Reference: US10405547B2, “Substituted cyclic amides as herbicides” (FMC Corporation, priority 2015, dated 2019)

Assays:
Type in all cases: in vivo
[1] = test system: pigweed (Amaranthus retroflexus); test: Test A postemergence, pigweed; details: 0 to 100 scale (0 no effect, 100 complete control)
Method in brief: (§1)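 Greenhouse test: compounds in solvent with surfactant sprayed onto loam–sand soil after planting (preemergence) or onto plants 2-10 cm at the one- to two-leaf stage (postemergence). Injury visually rated versus untreated controls after about 10 days on a 0-100 scale (100 = complete control).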

[2] = test system: corn (Zea mays); test: Test A postemergence, corn; details: 0 to 100 scale (0 no effect, 100 complete control)
Method in brief: as §1

[3] = test system: barnyardgrass (Echinochloa crus-galli); test: Test A postemergence, barnyardgrass; details: 0 to 100 scale (0 no effect, 100 complete control)
Method in brief: as §1

[4] = test system: rice (Oryza sativa); test: Test B flooded paddy test, rice; details: applied to paddy water, visual rating after 13 to 15 days, scale 0 (no effect) to 100 (complete control)
Method in brief: (§2)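 Compound was added to standing water 3 cm above soil, flood maintained, and plants held in a greenhouse before visual scoring against controls at 13 to 15 days.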

[5] = test system: ryegrass, Italian (Lolium multiflorum); test: Test A preemergence, Italian ryegrass; details: 0 to 100 scale (0 no effect, 100 complete control)
Method in brief: as §1

[6] = test system: ragweed (common ragweed, Ambrosia elatior); test: Test A postemergence, ragweed; details: 0 to 100 scale (0 no effect, 100 complete control)
Method in brief: as §1

[7] = test system: barnyardgrass (Echinochloa crus-galli); test: Test A preemergence, barnyardgrass; details: 0 to 100 scale (0 no effect, 100 complete control)
Method in brief: as §1

[8] = test system: galium (catchweed bedstraw, Galium aparine); test: Test A postemergence, galium; details: 0 to 100 scale (0 no effect, 100 complete control)
Method in brief: as §1

[9] = test system: wheat (Triticum aestivum); test: Test A postemergence, wheat; details: 0 to 100 scale (0 no effect, 100 complete control)
Method in brief: as §1

[10] = test system: ryegrass, Italian (Lolium multiflorum); test: Test A postemergence, Italian ryegrass; details: 0 to 100 scale (0 no effect, 100 complete control)
Method in brief: as §1

[11] = test system: foxtail, giant (Setaria faberii); test: Test A preemergence, giant foxtail; details: 0 to 100 scale (0 no effect, 100 complete control)
Method in brief: as §1

[12] = test system: pigweed (Amaranthus retroflexus); test: Test A preemergence, pigweed; details: 0 to 100 scale (0 no effect, 100 complete control)
Method in brief: as §1

[13] = test system: kochia (Kochia scoparia); test: Test A postemergence, kochia; details: 0 to 100 scale (0 no effect, 100 complete control)
Method in brief: as §1

[14] = test system: kochia (Kochia scoparia); test: Test A preemergence, kochia; details: 0 to 100 scale (0 no effect, 100 complete control)
Method in brief: as §1

[15] = test system: sedge, umbrella (small-flower umbrella sedge, Cyperus difformis); test: Test B flooded paddy test, umbrella sedge; details: applied to paddy water, visual rating after 13 to 15 days, scale 0 (no effect) to 100 (complete control)
Method in brief: as §2

[16] = test system: foxtail, giant (Setaria faberii); test: Test A postemergence, giant foxtail; details: 0 to 100 scale (0 no effect, 100 complete control)
Method in brief: as §1

[17] = test system: ducksalad (Heteranthera limosa); test: Test B flooded paddy test, ducksalad; details: applied to paddy water, visual rating after 13 to 15 days, scale 0 (no effect) to 100 (complete control)
Method in brief: as §2

[18] = test system: ragweed (common ragweed, Ambrosia elatior); test: Test A preemergence, ragweed; details: 0 to 100 scale (0 no effect, 100 complete control)
Method in brief: as §1

[19] = test system: blackgrass (Alopecurus myosuroides); test: Test A postemergence, blackgrass; details: 0 to 100 scale (0 no effect, 100 complete control)
Method in brief: as §1

[20] = test system: barnyardgrass (Echinochloa crus-galli); test: Test B flooded paddy test, barnyardgrass; details: applied to paddy water, visual rating after 13 to 15 days, scale 0 (no effect) to 100 (complete control)
Method in brief: as §2

[21] = 125 g ai/ha, visual injury, approximately 10 days
[22] = 500 g ai/ha, visual injury, approximately 10 days

| Structure (SMILES) | Plant response rating, Pigweed [1, 21] | Plant response rating, Corn [2, 21] | Plant response rating, Barnyardgrass [3, 21] | Plant response rating, Ryegrass, Italian ([5]; 125 g ai/ha) | Plant response rating, Ragweed [6, 21] | Plant response rating, Barnyardgrass ([7]; 125 g ai/ha) | Plant response rating, Galium [8, 21] | Plant response rating, Wheat [9, 21] | Plant response rating, Ryegrass, Italian [10, 21] | Plant response rating, Foxtail, Giant ([11]; 125 g ai/ha) | Plant response rating, Pigweed ([12]; 125 g ai/ha) | Plant response rating, Kochia [13, 21] | Plant response rating, Kochia ([14]; 125 g ai/ha) | Plant response rating, Foxtail, Giant [16, 21] | Plant response rating, Ragweed ([18]; 125 g ai/ha) | Plant response rating, Blackgrass [19, 21] | Plant response rating, Pigweed [1, 22] | Plant response rating, Corn [2, 22] | Plant response rating, Barnyardgrass [3, 22] | Plant response rating, Ryegrass, Italian ([5]; 500 g ai/ha) | also measured |
| --- | --- | --- | --- | --- | --- | --- | --- | --- | --- | --- | --- | --- | --- | --- | --- | --- | --- | --- | --- | --- | --- |
| O=C1NCC(c2cccc(CN3CCOCC3)c2)C1C(=O)Nc1cccc(F)c1F (single isomer, unassigned) [Compound 90] | 0 | 0 | 0 | 0 | 0 | 0 | 0 | 0 | 0 | 0 | 0 | 0 | 0 | 0 | 0 | 0 |  |  |  |  | Plant response rating, Pigweed ([1]; 31 g ai/ha): 0; Plant response rating, Corn ([2]; 31 g ai/ha): 0; Plant response rating, Barnyardgrass ([3]; 31 g ai/ha): 0; Plant response rating, Rice (Flood) ([4]; 250 g ai/ha): 0; Plant response rating, Ryegrass, Italian ([5]; 31 g ai/ha): 0; Plant response rating, Ragweed ([6]; 31 g ai/ha): 0; Plant response rating, Barnyardgrass ([7]; 31 g ai/ha): 0; Plant response rating, Galium ([8]; 31 g ai/ha): 0; Plant response rating, Wheat ([9]; 31 g ai/ha): 0; Plant response rating, Ryegrass, Italian ([10]; 31 g ai/ha): 0; Plant response rating, Foxtail, Giant ([11]; 31 g ai/ha): 0; Plant response rating, Pigweed ([12]; 31 g ai/ha): 0; Plant response rating, Kochia ([13]; 31 g ai/ha): 0; Plant response rating, Kochia ([14]; 31 g ai/ha): 0; Plant response rating, Sedge, Umbrella (Flood) ([15]; 250 g ai/ha): 0; Plant response rating, Foxtail, Giant ([16]; 31 g ai/ha): 0; Plant response rating, Ducksalad (Flood) ([17]; 250 g ai/ha): 0; Plant response rating, Ragweed ([18]; 31 g ai/ha): 0; Plant response rating, Blackgrass ([19]; 31 g ai/ha): 0; Plant response rating, Barnyardgrass (Flood) ([20]; 250 g ai/ha): 0 |
| O=C1NCC(c2cccc(OCc3ccccc3)c2)C1C(=O)Nc1ccccc1Cl (stereo not drawn) [Compound 67] | 0 | 0 | 0 | 0 | 0 | 0 | 0 | 0 | 0 | 0 | 0 | 0 | 0 | 0 | 0 | 0 | 0 | 0 | 0 | 0 | Plant response rating, Rice (Flood) ([4]; 500 g ai/ha): 0; Plant response rating, Ragweed [6, 22]: 0; Plant response rating, Barnyardgrass ([7]; 500 g ai/ha): 0; Plant response rating, Galium [8, 22]: 0; Plant response rating, Wheat [9, 22]: 0; Plant response rating, Ryegrass, Italian [10, 22]: 0; Plant response rating, Foxtail, Giant ([11]; 500 g ai/ha): 0; Plant response rating, Pigweed ([12]; 500 g ai/ha): 0; Plant response rating, Kochia [13, 22]: 0; Plant response rating, Kochia ([14]; 500 g ai/ha): 0; Plant response rating, Sedge, Umbrella (Flood) ([15]; 500 g ai/ha): 0; Plant response rating, Foxtail, Giant [16, 22]: 0; Plant response rating, Ducksalad (Flood) ([17]; 500 g ai/ha): 0; Plant response rating, Ragweed ([18]; 500 g ai/ha): 0; Plant response rating, Blackgrass [19, 22]: 0; Plant response rating, Barnyardgrass (Flood) ([20]; 500 g ai/ha): 0 |
| O=C1NCC(c2cccc(OCC3OCCO3)c2)C1C(=O)Nc1ccccc1C(F)(F)F (stereo not drawn) [Compound 5] | 0 | 0 | 0 | 0 | 0 | 0 | 0 | 0 | 20 | 30 | 0 | 0 | 0 | 20 | 0 | 0 | 0 | 0 | 20 | 0 | Plant response rating, Rice (Flood) ([4]; 250 g ai/ha): 0; Plant response rating, Ragweed [6, 22]: 0; Plant response rating, Barnyardgrass ([7]; 500 g ai/ha): 50; Plant response rating, Galium [8, 22]: 0; Plant response rating, Wheat [9, 22]: 0; Plant response rating, Ryegrass, Italian [10, 22]: 20; Plant response rating, Foxtail, Giant ([11]; 500 g ai/ha): 90; Plant response rating, Pigweed ([12]; 500 g ai/ha): 30; Plant response rating, Kochia [13, 22]: 0; Plant response rating, Kochia ([14]; 500 g ai/ha): 0; Plant response rating, Sedge, Umbrella (Flood) ([15]; 250 g ai/ha): 0; Plant response rating, Foxtail, Giant [16, 22]: 50; Plant response rating, Ducksalad (Flood) ([17]; 250 g ai/ha): 65; Plant response rating, Ragweed ([18]; 500 g ai/ha): 0; Plant response rating, Blackgrass [19, 22]: 0; Plant response rating, Barnyardgrass (Flood) ([20]; 250 g ai/ha): 0 |
| O=C1NCC(c2cccc(Cn3ccc(C(F)(F)F)n3)c2)C1C(=O)Nc1ccc(F)c(F)c1F (stereo not drawn) [Compound 22] | 0 | 0 | 40 | 0 | 0 | 0 | 0 | 0 | 0 | 40 | 0 | 0 | 0 | 20 | 0 | 0 | 0 | 0 | 60 | 0 | Plant response rating, Rice (Flood) ([4]; 500 g ai/ha): 0; Plant response rating, Ragweed [6, 22]: 0; Plant response rating, Barnyardgrass ([7]; 500 g ai/ha): 30; Plant response rating, Galium [8, 22]: 0; Plant response rating, Wheat [9, 22]: 0; Plant response rating, Ryegrass, Italian [10, 22]: 0; Plant response rating, Foxtail, Giant ([11]; 500 g ai/ha): 80; Plant response rating, Pigweed ([12]; 500 g ai/ha): 0; Plant response rating, Kochia [13, 22]: 0; Plant response rating, Kochia ([14]; 500 g ai/ha): 0; Plant response rating, Sedge, Umbrella (Flood) ([15]; 500 g ai/ha): 0; Plant response rating, Foxtail, Giant [16, 22]: 60; Plant response rating, Ducksalad (Flood) ([17]; 500 g ai/ha): 0; Plant response rating, Ragweed ([18]; 500 g ai/ha): 0; Plant response rating, Blackgrass [19, 22]: 0; Plant response rating, Barnyardgrass (Flood) ([20]; 500 g ai/ha): 30 |
